The values below come from paper PMC9822133, “Design, Synthesis and Antiproliferative Evaluation of Bis-Indole Derivatives with a Phenyl Linker: Focus on Autophagy” (Molecules, 2022).

Some results are limits rather than exact numbers.

Test [1] has as its system glutathione reductase (GR). Nature of the test: GR activity in treated A549 cells. In kind it is cell-based, human. To be noted: A549, 20 µM. The source says: (§1) Glutathione is an important intracellular molecule involved in carcinogen detoxification. On the other hand, its elevated state in cancer cells is often associated with resistance to chemotherapy. […] Because high levels of GSH are associated with cancer cell resistance, the GHS-depleting effect of compound 49 could be interesting due to new cancer chemosensitizer development. In the case of GST and GR, we hypothesize that an increase in the activity of both enzymes may be a compensatory mechanism induced by GSH depletion.
(§2) Both floating and adherent A549 cells were harvested at 24, 48, and 72 h after treatment with compound 49 (20 µM). SOD determination kit, Glutathione Peroxidase Cellular Activity Assay kit, Glutathione Reductase Assay Kit and Glutathione-S-transferase (GST) Assay Kit (all Sigma Aldrich, Germany) were used for the detection of relevant enzyme activity. Reduced glutathione (GSH) content was measured by the method originally described by Floreani et al.. Assays were performed on an M 501 single beam UV/VIS spectrophotometer (Spectronic Camspec Ltd., Leeds, United Kingdom). All measured parameters were calculated per milligram or gram of protein determined using the bicinchoninic acid assay.

Another test deals with glutathione (GSH). Nature of the test: GSH content in treated A549 cells. Type of test: cell-based, human. To be noted: A549, 20 µM.
Excerpt: as §1, §2

In a further test the test system is HeLa. Put plainly: MTT screening assay, HeLa. In kind it is cell-based. To be noted: Homo sapiens, 72 h incubation. From the text: (§3) The ability of newly synthesized indole phytoalexins to suppress cell proliferation was screened in vitro on eight cancer cell lines including human colorectal carcinoma (Caco-2 and HCT116), human cervical cancer (HeLa), human breast adenocarcinoma (MCF-7, MDA-MB-231), human alveolar adenocarcinoma (A549) and human leukemic T cell lymphoma (Jurkat), and two non-cancer cell lines (MCF-10A, Cos-7).
(§4) The cell lines used for this study were Caco-2 (human colorectal adenocarcinoma cell line, American Type Culture Collection, Manassas, VA, USA (ATCC)), HCT116 (human colorectal carcinoma cells European Collection of Authenticated Cell Cultures, Salisbury, UK (ECACC)), HeLa (human cervical tumor cells, ECACC), MCF-7 (human breast tumor cells, ECACC), MDA-MB-231 (human breast tumor cells, ATCC), A549 (human lung carcinoma cells, ATCC), BLM (human melanoma lung metastases, a gift from prof. K. Smetana, Institute of Anatomy, Charles University in Prague), Jurkat (human leukemia cell line, ECACC), Cos-7 (immortalized monkey kidney fibroblasts, ATCC) and MCF-10A (human mammary epithelial cells, ATCC). Caco-2, MCF-7, BLM, Cos-7 and A549 cells were cultured in Dulbecco’s Modified Eagle’s Medium (DMEM) with high glucose and sodium pyruvate (GE Healthcare, Piscataway, NJ, USA); HCT116 lines, HeLa, MDA-MB-231 and Jurkat were cultured in RPMI-1640 medium; and MCF10A cells were cultured in high glucose DMEM/F12 (Dulbecco’s Modified Eagle’s Medium F12). The media were enriched with 10% fetal bovine serum (FBS) and a 1% solution of a mixture of antibiotics and antimycotics 1× HyClone™ (GE Healthcare, Chicago, IL, USA). DMEM/F12 medium was supplemented with epidermal growth factor (EGF) (20 ng/mL final), hydrocortisone (0.5 μg/mL final) and insulin (10 μg/mL final) (Sigma-Aldrich Chemie, Steinheim, Germany). The cells were placed in an incubator at 37 °C with humidified air containing 5% CO2.
(§5) The MTT assay is a colorimetric method used to quantify the metabolic activity of cells. MTT (3-(4,5-di-methylthiazol-2-yl)2,5-diphenyltetrazolium bromide) (Sigma-Aldrich Chemie, Steinheim, Germany) is reduced by oxidoreductases in the cytosol of cells to light-absorbing formazan, the presence of which can be measured spectrophotometrically and determines the half-maximal inhibitory concentration (IC50). A549 cells were seeded in […] culture plates at a density of 5 × 10^3 per well. […]
(§6) We also incubated the cells with chloroquine at concentrations of 5–20 µM, which was added 1 h before the addition of the test substance, and cisplatin at concentrations of 3–10 µM. […] After 24 h, the absorbance was measured at a wavelength of 540 nm using an automated Cytation™ 3 Cell Imaging Multi-Mode Reader (Biotek, Winooski, VT, USA). […]

Test [2] deals with glutathione peroxidase (GPx). Put plainly: GPx activity in treated A549 cells. Type of test: cell-based, human. To be noted: A549, 20 µM.
Excerpt: as §1, §2

The next test relates to A549 cells. Put plainly: BrdU cell proliferation assay. In kind it is cell-based. To be noted: Homo sapiens; A549, 72 h of incubation, 5-30 μM; read-out: IC50, BrdU incorporation. As to the method: Measurement of the BrdU, a thymidine analogue, is a sensitive method used for the detection of DNA synthesis during the S phase of the cell cycle.
A549 tumor cells were plated at a density of 5 × 10^3 cells/well in a volume of 80 µL (96-well plates). After 24 h of incubation in the respective medium, we added the indole phytoalexin 49 in concentrations of 5–30 µM. After 48 h of incubation with the test substance, we added BrdU labeling solution and incubated for another 24 h. Subsequently, the cells were fixed for 30 min with a fixing solution, aspirated and incubated with peroxidase-conjugated anti-BrdU antibody (100 µL, 1:100). After washing with washing buffer 3 times, TMB substrate solution (tetramethylbenzidine, Roche, Basel, Switzerland) was added in a volume of 100 uL to each well. During the reaction, 25 µL of 1M H2SO4 was added as a stop solution, and the amount of BrdU incorporated was detected with an automated Cytation™ 3 Cell Imaging Multi-Mode Reader (Biotek, Winooski, VT, USA) at a wavelength of 450 nm. Three independent analyses were performed.
A general note: Dividing cells build labelled thymidine or BrdU into new DNA.

The subject of another test is MDA-MB-231. Nature of the test: MTT screening assay, MDA-MB-231. In kind it is cell-based. To be noted: Homo sapiens, 72 h incubation.
Excerpt: as §3, §4, §5, §6
Background: Formazan colour is commonly taken as a measure of viable cells.

With `CC(C)(C)OC(=O)n1cc(CNC(=O)Nc2ccc(NC(=O)NCc3cn(C(=O)OC(C)(C)C)c4ccccc34)cc2)c2ccccc21` [Compound 49, N,N′-(1,4-phenylene)bis{N′-[1-(tert-butoxycarbonyl)indol-3-yl]methyl (urea)}], the GR is listed as 8.200 ± 2.97 μkat/mg Prot in test [1] (24 h), 11.270 ± 1.04 μkat/mg Prot in test [1] (48 h) and 10.100 ± 2.89 μkat/mg Prot in test [1] (72 h). Besides, the GSH in the test on glutathione (GSH) (24 h) is listed as 0.395 ± 0.043 nmol/mg Prot; with glutathione (GSH) (48 h), 0.107 ± 0.015 nmol/mg Prot; in the test on glutathione (GSH) (72 h), 0.228 ± 0.062 nmol/mg Prot. Also, the IC50 in the test on HeLa was 8.9 ± 0.2 µM; in the test on A549 cells, 16.1 µM; in the test with MDA-MB-231, > 100 µM. Moreover, the GPx in test [2] (24 h) turned out to be 0.148 ± 0.021 μkat/mg Prot; in test [2] (48 h), 0.139 ± 0.028 μkat/mg Prot; in test [2] (72 h), 0.077 ± 0.038 μkat/mg Prot.
